From patent US7772180B2, “Hepatitis C virus inhibitors” (Bristol-Myers Squibb Company, priority 2006, dated 2010)
pEC50, pIC50: −log10 of the molar value. Like-named read-outs stand apart in the source and are kept apart here.

How the values were obtained:
[1] = molecular target: T1, HCV NS3/4A protease complex, BMS strain (UniProt P27958, species not given/STRAIN_BMS); assay: FRET peptide assay to monitor HCV NS3/4A proteolytic activity (BMS strain); format: biochemical, Hepatitis C virus (genotype 1a); details: read-out: HCV Protease (IC50), NS3/4A BMS strain
T1 construct: other: NS3/4A BMS strain; activity range class; numeric values, unit not given; said of H77 and J4L6S; fused on or other part: A three-lysine solubilising tail at the C-terminus of NS4A; A His tag is implied by the pET21b vector and Ni-NTA purification; Both are printed for the H77 and J4L6S constructs and apply to BMS by inference
T1 sequence (P27958 1027-1657, change not shown, one chain of several): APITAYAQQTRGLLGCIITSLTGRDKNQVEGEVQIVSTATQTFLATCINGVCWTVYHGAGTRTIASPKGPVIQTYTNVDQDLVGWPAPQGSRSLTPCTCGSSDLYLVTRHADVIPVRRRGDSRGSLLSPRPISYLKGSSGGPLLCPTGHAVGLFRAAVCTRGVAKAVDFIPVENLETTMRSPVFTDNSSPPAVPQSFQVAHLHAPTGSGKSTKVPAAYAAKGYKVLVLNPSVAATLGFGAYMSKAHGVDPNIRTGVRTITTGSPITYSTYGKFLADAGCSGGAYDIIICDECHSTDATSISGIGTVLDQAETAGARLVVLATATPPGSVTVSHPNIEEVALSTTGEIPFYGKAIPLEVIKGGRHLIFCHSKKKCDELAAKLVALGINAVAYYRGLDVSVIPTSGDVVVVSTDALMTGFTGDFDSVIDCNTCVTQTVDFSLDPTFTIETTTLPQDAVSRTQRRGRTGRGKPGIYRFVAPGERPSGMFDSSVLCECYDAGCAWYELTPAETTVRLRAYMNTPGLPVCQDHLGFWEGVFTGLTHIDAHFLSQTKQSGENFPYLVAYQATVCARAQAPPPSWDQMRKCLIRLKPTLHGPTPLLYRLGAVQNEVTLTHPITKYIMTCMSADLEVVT
From the text: HCV NS3 protease complexes, derived from the BMS strain, H77 strain or J4L6S strain, were generated, as described below. These purified recombinant proteins were generated for use in a homogeneous assay (see below) to provide an indication of how effective compounds of the present disclosure would be in inhibiting HCV NS3 proteolytic activity.
Serum from an HCV-infected patient was obtained from Dr. T. Wright, San Francisco Hospital. An engineered full-length cDNA (compliment deoxyribonucleic acid) template of the HCV genome (BMS strain) was constructed from DNA fragments obtained by reverse transcription-PCR (RT-PCR) of serum RNA (ribonucleic acid) and using primers selected on the basis of homology between other genotype 1a strains. From the determination of the entire genome sequence, a genotype 1a was assigned to the HCV isolate according to the classification of Simmonds et al. (See P Simmonds, K A Rose, S Graham, S W Chan, F McOmish, B C Dow, E A Follett, P L Yap and H Marsden, J. Clin. Microbiol., 31(6), 1493-1503 (1993)). […] The infectious clones, H77 (1a genotype) and J4L6S (1b genotype) were obtained from R. Purcell (NIH) and the sequences are published in Genbank (AAB67036, see Yanagi, M., Purcell, R. H., Emerson, S. U. and Bukh, J. Proc. Natl. Acad. Sci. U.S.A. 94(16), 8738-8743 (1997); AF054247, see Yanagi, M., St Claire, M., Shapiro, M., Emerson, S. U., Purcell, R. H. and Bukh, J. Virology 244 (1), 161-172. (1998)).
NS3/4A protease complex-containing fractions were pooled and loaded on a desalting column Superdex-S200 pre-equilibrated with buffer D (25 mM HEPES, pH 7.5, 20% glycerol, 300 mM NaCl, 0.2% Triton X-100, 10 mM βME). Sample was loaded at a flow rate of 1 mL/min. NS3/4A protease complex-containing fractions were pooled and concentrated to approximately 0.5 mg/ml. The purity of the NS3/4A protease complexes, derived from the BMS, H77 and J4L6S strains, were judged to be greater than 90% by SDS-PAGE and mass spectrometry analyses. The enzyme was stored at −80° C., thawed on ice and diluted prior to use in assay buffer.
The purpose of this in vitro assay was to measure the inhibition of HCV NS3 protease complexes, derived from the BMS strain, H77 strain or J4L6S strain, as described above, by compounds of the present disclosure. This assay provides an indication of how effective compounds of the present disclosure would be in inhibiting HCV NS3 proteolytic activity.
In order to monitor HCV NS3/4A protease activity, an NS3/4A peptide substrate was used. The substrate was RET S1 (Resonance Energy Transfer Depsipeptide Substrate; AnaSpec, Inc. cat #22991) (FRET peptide), described by Taliani et al. in Anal. Biochem. 240(2):60-67 (1996). The sequence of this peptide is loosely based on the NS4A/NS4B natural cleavage site for the HCV NS3 protease except there is an ester linkage rather than an amide bond at the cleavage site. The peptide also contains a fluorescence donor, EDANS, near one end of the peptide and an acceptor, DABCYL, near the other end. The fluorescence of the peptide is quenched by […] resonance energy transfer (RET) between the donor and the acceptor, but as the NS3 protease cleaves the peptide the products are released from RET quenching and the fluorescence of the donor becomes apparent.
The peptide substrate was incubated with one of the three recombinant NS3/4A protease complexes, in the absence or presence of a compound of the present disclosure. The inhibitory effects of a compound were determined by monitoring the formation of fluorescent reaction product in real time using a Cytofluor Series 4000.
Assay buffer: 50 mM HEPES, pH 7.5; 0.15 M NaCl; 0.1% Triton; 15% Glycerol; 10 mM βME. Substrate: 2 μM final concentration (from a 2 mM stock solution in DMSO stored at −20° C.). HCV NS3/4A protease type 1a (1b), 2-3 nM final concentration (from a 5 μM stock solution in 25 mM HEPES, pH 7.5, 20% glycerol, 300 mM NaCl, 0.2% Triton-X100, 10 mM βME). […]

[2] = test system: HCV replicon (strain 1b) in HUH-7 cells; assay: HCV replicon FRET assay; format: cell-based, Hepatitis C virus
From the text: An HCV replicon whole cell system was established as described by Lohmann V, Korner F, Koch J, Herian U, Theilmann L, Bartenschlager R., Science 285(5424): 110-3 (1999). This system enabled us to evaluate the effects of our HCV Protease compounds on HCV RNA replication. Briefly, using the HCV strain 1b sequence described in the Lohmann paper (Assession number: AJ238799), an HCV cDNA was synthesized by Operon Technologies, Inc. (Alameda, Calif.), and the full-length replicon was then assembled in plasmid pGem9zf(+) (Promega, Madison, Wis.) using standard molecular biology techniques. The replicon consists of (i) the HCV 5′ UTR fused to the first 12 amino acids of the capsid protein, (ii) the neomycin phosphotransferase gene (neo), (iii) the IRES from encephalomyocarditis virus (EMCV), and (iv) HCV NS3 to NS5B genes and the HCV 3′ UTR. Plasmid DNAs were linearized with ScaI and RNA transcripts were synthesized in vitro using the T7 MegaScript transcription kit (Ambion, Austin, Tex.) according to manufacturer's directions. In vitro transcripts of the cDNA were transfected into the human hepatoma cell line, HUH-7. […] Resulting cell lines were characterized for positive and negative strand RNA production and protein production over time.
The HCV replicon FRET assay was developed to monitor the inhibitory effects of compounds described in the disclosure on HCV viral replication. HUH-7 cells, constitutively expressing the HCV replicon, were grown in Dulbecco's Modified Eagle Media (DMEM) (Gibco-BRL) containing 10% Fetal calf serum (FCS) (Sigma) and 1 mg/ml G418 (Gibco-BRL). Cells were seeded the night before (1.5×10^4 cells/well) in 96-well tissue-culture sterile plates. Compound and no compound controls were prepared in DMEM containing 4% FCS, 1:100 Penicillin/Streptomysin (Gibco-BRL), 1:100 L-glutamine and 5% DMSO in the dilution plate (0.5% DMSO final concentration in the assay). Compound/DMSO mixes were added to the cells and incubated for 4 days at 37° C. After 4 days, cells were first assessed for cytotoxicity using alamar Blue (Trek Diagnotstic Systems) for a CC50 reading. The toxicity of compound (CC50) was determined by adding 1/10th volume of alamarBlue to the media incubating the cells. After 4 hours, the fluorescence signal from each well was read, with an excitation wavelength at 530 nm and an emission wavelength of 580 nm, using the Cytofluor Series 4000 (Perspective Biosystems). Plates were then rinsed thoroughly with Phosphate-Buffered Saline (PBS) (3 times 150 μl).

[3] = Hepatitis C virus, Huh-7, read-out: HCV Pro Replicon (EC50), HCV replicon cell assay, activity range class
[4] = Hepatitis C virus, Huh-7, read-out: HCV Pro Replicon (EC50), HCV replicon cell assay, numeric values, unit inferred

SMILES	pIC50 ([1]; activity range class)	pEC50 [2, 3]	pIC50 ([1]; numeric values, unit inferred)	pEC50 [2, 4]	pEC50 ([2]; read-out: HCV Pro Replicon (EC50), HCV replicon cell assay, activity range class)
C=C[C@@H]1C[C@]1(NC(=O)[C@@H]1C[C@@H](Oc2nc(N(C)C)cc3cc(OC)ccc23)CN1C(=O)C(Nc1cc(C)cc(C)n1)C(C)C)C(=O)NS(=O)(=O)C1CC1 (stereo partly drawn) [Compound 17, N-(4,6-dimethyl-2-pyridinyl)valyl-(4R)—N-((1R,2S)-1-((cyclopropylsulfonyl)carbamoyl)-2-vinylcyclopropyl)-4-((3-(dimethylamino)-6-methoxy-1-isoquinolinyl)oxy)-L-prolinamide]	7.70 to 9.22	7.00 to 8.52			
C=C[C@@H]1C[C@]1(NC(=O)[C@@H]1C[C@@H](Oc2ncc(OC)c3ccc(Cl)cc23)CN1C(=O)[C@H](Nc1ccc(S(=O)(=O)NCC)cc1)C(C)(C)C)C(=O)NS(=O)(=O)C1CC1 [223 second isomer, N-(4-(ethylsulfamoyl)phenyl)-3-methyl-D-valyl-(4R)-4-((7-chloro-4-methoxy-1-isoquinolinyl)oxy)-N-((1R,2S)-1-((cyclopropylsulfonyl)carbamoyl)-2-vinylcyclopropyl)-L-prolinamide]	< 6.70	< 6.00			
C=C[C@@H]1C[C@]1(NC(=O)[C@@H]1C[C@@H](Oc2nccc3cc(OC)ccc23)CN1C(=O)[C@@H](NC1=NCCCS1)C(C)(C)C)C(=O)NS(=O)(=O)C1CC1 [Compound 36, N-(5,6-dihydro-4H-1,3-thiazin-2-yl)-3-methyl-L-valyl-(4R)—N-((1R,2S)-1-((cyclopropylsulfonyl)carbamoyl)-2-vinylcyclopropyl)-4-((6-methoxy-1-isoquinolinyl)oxy)-L-prolinamide]			7.14	5.85	
C=C[C@@H]1C[C@]1(NC(=O)[C@@H]1C[C@@H](Oc2ncc(OC)c3ccc(Cl)cc23)CN1C(=O)C(Nc1cncc(C(F)(F)F)c1)C(C)(C)C)C(=O)NS(=O)(=O)C1CC1 (single isomer, unassigned) [Compound 27A]			8.52	8.39	
C=CC1CC1(NC(=O)C1CC(Oc2ncc(OC)c3ccc(Cl)cc23)CN1C(=O)C(Nc1ccccc1)C(C)(C)C)C(=O)NS(=O)(=O)C1CC1 (single isomer, unassigned; isomer 3) [213 first isomer]	< 6.70				6.00 to 7.00
C=C[C@@H]1C[C@]1(NC(=O)[C@@H]1C[C@@H](Oc2ncc(OC)c3ccc(Cl)cc23)CN1C(=O)C(Nc1cc(Cl)cc(Cl)n1)C(C)(C)C)C(=O)NS(=O)(=O)C1CC1 (single isomer, unassigned) [Compound 32B]	< 6.70	< 6.00			
C=C[C@@H]1C[C@]1(NC(=O)[C@@H]1C[C@@H](Oc2ncc(OC)c3ccc(Cl)cc23)CN1C(=O)[C@H](Nc1cccc(S(=O)(=O)N(C)C)c1)C(C)(C)C)C(=O)NS(=O)(=O)C1CC1 [219 second isomer, N-(3-(dimethylsulfamoyl)phenyl)-3-methyl-D-valyl-(4R)-4-((7-chloro-4-methoxy-1-isoquinolinyl)oxy)-N-((1R,2S)-1-((cyclopropylsulfonyl)carbamoyl)-2-vinylcyclopropyl)-L-prolinamide]	7.70 to 9.22	7.00 to 8.52			
C=C[C@@H]1C[C@]1(NC(=O)[C@@H]1C[C@@H](Oc2ncc(OC)c3ccc(Cl)cc23)CN1C(=O)[C@@H](Nc1cccc(S(=O)(=O)N(C)C)c1)C(C)(C)C)C(=O)NS(=O)(=O)C1CC1 [219 first isomer, N-(3-(dimethylsulfamoyl)phenyl)-3-methyl-L-valyl-(4R)-4-((7-chloro-4-methoxy-1-isoquinolinyl)oxy)-N-((1R,2S)-1-((cyclopropylsulfonyl)carbamoyl)-2-vinylcyclopropyl)-L-prolinamide]	< 6.70	< 6.00			
C=C[C@@H]1C[C@]1(NC(=O)[C@@H]1C[C@@H](Oc2ncc(OC)c3ccc(Cl)cc23)CN1C(=O)[C@H](Nc1cccc(C(=O)OC(C)(C)C)c1)C(C)(C)C)C(=O)NS(=O)(=O)C1CC1 [210 second isomer, N-(3-(tert-butoxycarbonyl)phenyl)-3-methyl-D-valyl-(4R)-4-((7-chloro-4-methoxy-1-isoquinolinyl)oxy)-N-((1R,2S)-1-((cyclopropylsulfonyl)carbamoyl)-2-vinylcyclopropyl)-L-prolinamide]	6.70 to 7.70	6.00 to 7.00			
C=C[C@@H]1C[C@]1(NC(=O)[C@@H]1C[C@@H](Oc2ncc(OC)c3ccc(Cl)cc23)CN1C(=O)[C@H](Nc1cccc(C(=O)OC(C)C)c1)C(C)(C)C)C(=O)NS(=O)(=O)C1CC1 [231 second isomer, N-(3-(isopropoxycarbonyl)phenyl)-3-methyl-D-valyl-(4R)-4-((7-chloro-4-methoxy-1-isoquinolinyl)oxy)-N-((1R,2S)-1-((cyclopropylsulfonyl)carbamoyl)-2-vinylcyclopropyl)-L-prolinamide]	< 6.70	< 6.00			
C=C[C@@H]1C[C@]1(NC(=O)[C@@H]1C[C@@H](Oc2ncc(OC)c3ccc(Cl)cc23)CN1C(=O)C(Nc1cc(C)nc(C)c1)C(C)(C)C)C(=O)NS(=O)(=O)C1CC1 (single isomer, unassigned) [Compound 29A]	7.70 to 9.22	6.00 to 7.00			
